Laboratory results from patent US10239887B2, “Positive allosteric modulators of the muscarinic acetylcholine receptor M4” (Vanderbilt University, priority 2016, dated 2019).
Structures can show the parent of a compound that is named as a salt.

Target: T1, human mAChR M4 (Homo sapiens, UniProt P08173)
T1 sequence (P08173 1-479): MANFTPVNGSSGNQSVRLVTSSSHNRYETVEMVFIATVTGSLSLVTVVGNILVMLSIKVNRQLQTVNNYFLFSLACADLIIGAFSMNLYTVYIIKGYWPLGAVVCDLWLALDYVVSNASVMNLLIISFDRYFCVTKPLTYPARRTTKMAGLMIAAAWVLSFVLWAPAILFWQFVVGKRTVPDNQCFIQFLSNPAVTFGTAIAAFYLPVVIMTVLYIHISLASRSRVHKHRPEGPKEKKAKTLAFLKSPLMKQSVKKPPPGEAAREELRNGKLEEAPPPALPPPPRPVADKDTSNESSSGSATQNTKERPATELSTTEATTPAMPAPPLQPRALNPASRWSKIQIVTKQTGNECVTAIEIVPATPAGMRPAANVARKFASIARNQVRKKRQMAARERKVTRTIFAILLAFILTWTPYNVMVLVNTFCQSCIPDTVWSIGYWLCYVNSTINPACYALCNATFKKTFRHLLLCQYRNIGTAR
Experiment: mAChR M4 cell-based functional assay (calcium flux), human M4
Settings: for EC50: calcium flux; for Emax: % ACh maximum at 30 μM

[1] = Human M4 EC50 (nM), Table 10, PAM activity with EC20 acetylcholine
[2] = Human M4 EC50 (nM), Table 11, PAM activity with EC20 acetylcholine
[3] = Human M4 EC50, CHO-K1 hM4-Gqi5 cells, increase in EC20 acetylcholine response

SMILES | EC50 [1] [nM] | Emax (Table 10) [%] | also measured
Cc1nnc2sc3c(NCc4ccc(C(=O)NC(C)C)cc4)ncnc3c2c1C [Compound 155, 4-[[(3,4-dimethylpyrimido [4′,5′:4,5]thieno[2,3-c]pyridazin-8-yl)amino]methyl]-N-isopropyl-benzamide] | 174 | 88.1 | –
Cc1nnc2sc3c(NC4CN(c5ncc(OC(C)C)cn5)C4)ncnc3c2c1C [Compound 89, N-[1-(5-isopropoxypyrimidin-2-yl)azetidin-3-yl]-3,4-dimethyl-pyrimido [4′,5′:4,5]thieno[2,3-c] pyridazin-8-amine] | 75.2 | 57.8 | –
Cc1c(Cl)nnc2sc3c(NCc4ccc(OC(F)F)nc4)ncnc3c12 [Compound 211, 3-chloro-N-[[6-(difluoromethoxy)-3-pyridyl]methyl]-4-methyl-pyrimido [4′,5′:4,5]thieno[2,3-c] pyridazin-8-amine] | 787 | 68.5 | –
Cc1nc2sc3c(NCc4ccc(C(C)(C)O)c(F)c4)ncnc3c2c(C)c1Cl [Compound 278, 2-[4-[[(8-chloro-7,9-dimethyl-pyrido [3′,2′:4,5]thieno[3,2-d]pyrimidin-4-yl)amino]methyl]-2-fluoro-phenyl] propan-2-ol] | 3800 | 37 | –
Cc1cc(C)c2c(n1)sc1c(NC3CN(c4ccnc(C5(O)CCC5)c4)C3)ncnc12 [Compound 208, 1-[4-[3-[(7,9-dimethylpyrido [3′,2′:4,5]thieno[3,2-d]pyrimidin-4-yl)amino]azetidin-1-yl]-2-pyridyl]cyclobutanol] | 462 | 75.4 | –
Cc1nnc2sc3c(NC(C)c4ccc(C5(O)CCC5)cc4)ncnc3c2c1C (stereo not shown) [Compound 101, 1-[4-[1-[(3,4-dimethylpyrimido [4′,5′:4,5]thieno[2,3-c]pyridazin-8-yl)amino]ethyl]phenyl]cyclobutanol] | 839 | 59.2 | –
Cc1nnc2sc3c(N4CC[C@@H](N)C4)ncnc3c2c1C [Compound 99, (3R)-1-(3,4-dimethylpyrimido [4′,5′:4,5]thieno[2,3-c]pyridazin-8-yl)pyrrolidin-3-amine dihydrochloride] | 1040 | 54 | –
Cc1nnc2sc3c(NCc4ccc(C(=O)N[C@H](C)C(F)(F)F)c(Cl)c4)ncnc3c2c1C [Compound 320, 2-chloro-4-[[(3,4-dimethylpyrimido [4′,5′:4,5]thieno[2,3-c]pyridazin-8-yl)amino]methyl]-N-[(1R)-2,2,2-trifluoro-1-methyl-ethyl] benzamide] | – | – | EC50 [2]: 532 nM; Emax (Table 11): 81.1%
Cc1cc(C)c2c(n1)sc1c(N3CC4(COC4)C3)ncnc12 [Compound 195, 6-(7,9-dimethylpyrido [3′,2′:4,5]thieno[3,2-d]pyrimidin-4-yl)-2-oxa-6-azaspiro[3.3]heptane] | – | 76.3 | –
Cc1nnc2sc3c(N4CC(C)(O)C4)ncnc3c2c1C [Compound 34, 1-(3,4-dimethylpyrimido [4′,5′:4,5]thieno[2,3-c]pyridazin-8-yl)-3-methylazetidin-3-ol] | – | – | Emax (Human M4): 59%; EC50 [3]: 660 nM
Cc1c(Cl)cnc2sc3c(N4CCC(F)(F)C4)ncnc3c12 [Compound 216, 8-chloro-4-(3,3-difluoropyrrolidin-1-yl)-9-methyl-pyrido [3′,2′:4,5]thieno[3,2-d] pyridimidine] | 685 | 52.4 | –
Cc1cc(C)c2c(n1)sc1c(NCc3ccc(C(C)(C)O)cc3)ncnc12 [Compound 206, 2-[4-[[(7,9-dimethylpyrido [3′,2′:4,5]thieno[3,2-d]pyrimidin-4-yl)amino]methyl]phenyl]propan-2-ol] | 910 | 75.8 | –
Cc1nnc2sc3c(NCc4ccc(C(C)(C)CO)cc4F)ncnc3c2c1C [Compound 368, 2-[4-[[(3,4-dimethylpyrimido[4′,5′:4,5]thieno[2,3-c]pyridazin-8-yl)amino]methyl]-3-fluoro-phenyl]-2-methyl-propan-1-ol] | – | – | EC50 [2]: 766 nM; Emax (Table 11): 98%
Cc1nnc2sc3c(NCc4ccc(CN5CCCC5C(C)(C)O)cc4)ncnc3c2c1C (stereo not shown) [Compound 117, 2-[1-[[4-[[(3,4-dimethylpyrimido [4′,5′:4,5]thieno[2,3-c]pyridazin-8-yl)amino]methyl]phenyl]methyl]pyrrolidin-2-yl]propan-2-ol] | 49.1 | 108 | –
Cc1nnc2sc3c(NCc4ccc(F)c(C(=O)N[C@H](C)C(F)(F)F)c4)ncnc3c2c1C [Compound 182, 5-[[(3,4-dimethylpyrimido [4′,5′:4,5]thieno[2,3-c]pyridazin-8-yl)amino]methyl]-2-fluoro-N-[(1R)-2,2,2-trifluoro-1-methyl-ethyl]benzamide] | 1170 | 97.2 | –
Cc1nnc2sc3c(N4CC[C@H](Oc5ccc(C#N)cc5)C4)ncnc3c2c1C [Compound 363, 4-[(3S)-1-(3,4-dimethylpyrimido[4′,5′:4,5]thieno[2,3-c]pyridazin-8-yl)pyrrolidin-3-yl] oxybenzonitrile dihydrochloride] | – | – | EC50 [2]: 298 nM; Emax (Table 11): 64.8%
Cc1nnc2sc3c(NCc4ccc(-c5ccccn5)cc4)ncnc3c2c1C [Compound 109, 3,4-dimethyl-N-[[4-(2-pyridyl)phenyl]methyl] pyrimido[4′,5′:4,5]thieno [2,3-c]pyridazin-8-amine hydrochloride] | 748 | 79.2 | –
Cc1nnc2oc3c(NC4CC4)ncnc3c2c1C [Compound 302, N-cyclopropyl-3,4-dimethyl-pyrimido [4′,5′:4,5]furo[2,3-c]pyridazin-8-amine] | 1300 | 66.5 | –
Cc1nc2sc3c(NCc4ccc(-n5ccnc5)cc4)ncnc3c2c(C)c1Cl [Compound 268, 8-chloro-N-[(4-imidazol-1-ylphenyl)methyl]-7,9-dimethyl-pyrido[3′,2′:4,5] thieno[3,2-d]pyrimidin-4-amine dihydrochloride] | 3170 | 31.3 | –
Cc1nnc2sc3c(NCc4ccc(C(=O)N(C)C5CC5)cc4)ncnc3c2c1C [Compound 132, N-cyclopropyl-4-[[(3,4-dimethylpyrimido [4′,5′:4,5]thieno[2,3-c]pyridazin-8-yl)amino]methyl]-N-methyl-benzamide] | 309 | 90.4 | –
Cc1nnc2sc3c(NCc4ccc(F)c(C(C)(C)O)c4)ncnc3c2c1C [Compound 175, 2-[5-[[(3,4-dimethylpyrimido [4′,5′:4,5]thieno[2,3-c]pyridazin-8-yl)amino]methyl]-2-fluoro-phenyl]propan-2-ol] | 722 | 52.5 | –
Cc1nnc2sc3c(NCc4ccc(-c5ccnn5C)cc4)ncnc3c2c1C [Compound 193, 3,4-dimethyl-N-[[4-(2-methylpyrazol-3-yl)phenyl]methyl]pyrimido [4′,5′:4,5]thieno[2,3-c] pyridazin-8-amine] | 439 | 82 | –
Cc1nc2sc3c(N4CCC(F)(F)C4)ncnc3c2c(C)c1Cl [Compound 255, 8-chloro-4-(3,3-difluoropyrrolidin-1-yl)-7,9-dimethyl-pyrido [3′,2′:4,5]thieno[3,2-d] pyrimidine hydrochloride] | 2340 | 73 | –
Cc1nnc2sc3c(N4CC(C(N)=O)C4)ncnc3c2c1C [Compound 104, 1-(3,4-dimethylpyrimido [4′,5′:4,5]thieno[2,3-c]pyridazin-8-yl)azetidine-3-carboxamide] | 2100 | 52.9 | –
Cc1cnc(N2CC3(CC(Nc4ncnc5c4sc4nnc(C)c(C)c45)C3)C2)nc1 [Compound 165, 3,4-dimethyl-N-[2-(5-methylpyrimidin-2-yl)-2-azaspiro[3.3]heptan-6-yl]pyrimido [4′,5′:4,5]thieno[2,3-c] pyridazin-8-amine] | 2410 | 31.6 | –
Cc1nnc2sc3c(NCc4ccc(C(=O)NC5CC5)cc4)ncnc3c2c1C [Compound 133, N-cyclopropyl-4-[[(3,4-dimethylpyrimido [4′,5′:4,5]thieno[2,3-c]pyridazin-8-yl)amino]methyl]benzamide] | 100 | 86 | –
Cc1nnc2sc3c(N4CC(F)(F)C4)ncnc3c2c1C [Compound 21, 8-(3,3-difluoroazetidin-1-yl)-3,4-dimethylpyrimido [4′,5′:4,5]thieno[2,3-c] pyridazine] | – | – | Emax (Human M4): 64%; EC50 [3]: 426 nM
CC(=O)OCc1nnc2sc3c(NCc4ccc(C(C)(C)O)cc4)ncnc3c2c1C [Compound 376, [8-[[4-(1-hydroxy-1-methyl-ethyl)phenyl]methylamino]-4-methyl-pyrimido[4′,5′:4,5]thieno[2,3-c]pyridazin-3-yl]methyl acetate] | – | – | Emax (Table 11): 59.4%
Cc1nnc2sc3c(NCc4ccc(C(=O)NC5CCC5)cc4)ncnc3c2c1C [Compound 150, N-cyclobutyl-4-[[(3,4-dimethylpyrimido [4′,5′:4,5]thieno[2,3-c]pyridazin-8-yl)amino]methyl]benzamide] | 105 | 74.9 | –
Cc1nnc2oc3c(NCc4ccc(C(C)(C)O)cc4)ncnc3c2c1C [Compound 65, 2-[4-[[(3,4-dimethylpyrimido[4′,5′:4,5]furo[2,3-c]pyridazin-8-yl)amino]methyl]phenyl]propan-2-ol] | – | – | Emax (Human M4): 61.2%; EC50 [3]: 2290 nM
